Consider 14 compounds from PubChem BioAssay (NCI).

Values joined by “and” are separate entries in the source; they are usually repeats but may differ in a detail not shown here. Equal values may be shown once.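 These data come from cells grown in 96-well plates and exposed to compound for 48 hours at five concentrations. The concentration for 50% growth inhibition is given as GI50. TGI denotes the concentration required for complete inhibition of growth.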

Holding throughout (experiment): inhibition of tumour cell growth, NCI panel, 48 h
For experiment [1], the system named is CCRF-CEM leukemia.
The subject of experiment [2] is COLO 205 colon.
Experiment [3] relates to HCT-116 colon.
In experiment [4] the test system is HCT-15 colon.
The subject of experiment [5] is NCI-H226 lung.
Experiment [6] has as its system NCI/ADR-RES ovarian.
Experiment [7] relates to OVCAR-4 ovarian.
Experiment [8] concerns SF-295 CNS.
The subject of experiment [9] is UACC-62 melanoma.

For the compound `C=C1CCC2C(/C=C(\C)CCC1O)OC(=O)C2C` (stereo not given), the GI50 in experiment [1] was 31.3 µM; in experiment [2], greater than 100 µM; in experiment [3], greater than 100 µM; in [4] it was greater than 100 µM; in experiment [5], greater than 100 µM; in experiment [6], greater than 100 µM. The GI50 in [7], in experiment [8] and in experiment [9] was greater than 100 µM in each case. Besides, the TGI in experiment [1], in experiment [2], in experiment [3], in [4], in experiment [5] and in [6] was greater than 100 µM in each case. Moreover, the TGI in [7], in experiment [8] and in experiment [9] was greater than 100 µM each time.
With `FC(F)(F)c1nc(-c2ccccc2Cl)[nH]c1C(F)(F)F`, the TGI in experiment [1] came to 1.6 µM; in [2] it was 0.971 µM; in experiment [3], 2.15 µM; in [4], 3.52 µM; in experiment [5], 3.54 µM; in experiment [7], 22.1 µM. The TGI in experiment [8] came out at 2.03 µM; in experiment [9], 3.8 µM.
`C1COCCN1.C1COCCN1.N.N.[Cl-].[Pt+2]`: the GI50 in [2], in experiment [3], in experiment [4], in experiment [5], in experiment [7] and in [8] was greater than 100 µM throughout. For the same compound, the GI50 in experiment [9] is greater than 100 µM. For the same compound, the TGI in experiment [2], in [3], in experiment [4], in experiment [5], in experiment [7] and in experiment [8] was greater than 100 µM throughout. The compound also returned a TGI in [9] greater than 100 µM.
With `CC(=O)[CH-]C(=O)c1ccccc1.CC(=O)[CH-]C(=O)c1ccccc1.CCCCCCCCCCCCCCCCCC(=O)[O-].CCCCCCCCCCCCCCCCCC(=O)[O-].[Ti+4]`, the GI50 in experiment [1] was 23.2 µM; in experiment [2], 87.4 µM; in [3] it was 18.3 µM; in [4], 32.9 µM; in [5] it was 14.5 µM; in [7] it was 16.6 µM. Besides, the GI50 in experiment [8] is 19.5 µM; in experiment [9] it was 18.7 µM. Further, the TGI in [1] was 86.3 µM; in [2] it was greater than 100 µM; in experiment [3], 36.5 µM; in experiment [4], 69.6 µM; in experiment [5], 34.3 µM; in experiment [7], 31.8 µM. Also, the TGI in experiment [8] is 34.3 µM; in experiment [9], 41.5 µM.
For the compound `COc1ccc2cc1Oc1ccc(cc1)C[C@H]1c3cc(c(OC)cc3CCN1C)Oc1c(OC)c(OC)cc3c1[C@H](C2)N(C)CC3`, the GI50 in experiment [3] was 3.8 µM; in [4], 5.99 µM; in [7] it was 12.4 µM; in experiment [8], 12.8 µM. Also, the TGI in [3] was 11.1 µM and 14.9 µM and > 100 µM; in experiment [4] it was 16.5 µM and 18.5 µM; in experiment [7] it was 11.1 µM and 28.5 µM; in experiment [8], 16.3 µM and 28.9 µM and > 100 µM.
As for `CSC1=NC=CCN1C`, the TGI in [1], in experiment [2], in experiment [3], in experiment [4], in experiment [5] and in experiment [7] was greater than 100 µM in each case. For the same compound, the TGI in experiment [8] and in [9] was greater than 100 µM in each case.
As to `COc1cc2c(c3c1C=CCO3)C(=O)c1ccccc1C2=O`, the TGI in experiment [1] was 66.4 µM; in experiment [2], 39.8 µM; in experiment [3] it was greater than 100 µM; in experiment [4] it was greater than 100 µM; in experiment [5], 97.8 µM; in experiment [8] it was greater than 100 µM. In [9], this compound showed a TGI greater than 100 µM.
As for `Cn1cc(NC(=O)c2cc(NC(=O)CCCCCCCCCCC(=O)Nc3cc(C(=O)Nc4cc(C(=O)NCCC(=N)N)n(C)c4)n(C)c3)cn2C)cc1C(=O)NCCC(=N)N`, the TGI in experiment [1], in experiment [2], in experiment [3], in experiment [4], in [5] and in experiment [7] was greater than 100 µM in each case. Moreover, the TGI in [8] and in [9] was greater than 100 µM each time.
Regarding `O=C(C#Cc1c[nH]c(=O)[nH]c1=O)c1ccccc1Cl`, the TGI turned out to be 59.8 µM in experiment [1]; 29.8 µM in [2]; 30.9 µM in experiment [3]; 28.7 µM in experiment [4]; 75.7 µM in experiment [5]; 31.1 µM in experiment [7]. In addition, the TGI is greater than 100 µM in experiment [8] and 38.6 µM in experiment [9].
In the case of `COC1O[C@H]2CCN(C(=O)OCc3ccccc3)[C@H]2[C@H]1OCc1ccccc1` (stereo not given in full), the TGI in [1], in [2], in experiment [3], in experiment [4], in experiment [5] and in [7] was greater than 100 µM in each case. In addition, the TGI is greater than 100 µM in experiment [8] and 64.4 µM in [9].
`Cc1cc2c(cc1C)[n+](=O)c(C(=O)C/C(=N/NC(=O)c1ccccc1O)C(=O)Nc1ccccc1C(C)C)c(C)n2[O-]`: the TGI in experiment [1] is 94.1 µM; in [2] it was greater than 100 µM; in experiment [3] it was greater than 100 µM; in [4], greater than 100 µM; in experiment [5] it was greater than 100 µM; in [7], greater than 100 µM. For the same compound, the TGI in [8] and in experiment [9] was greater than 100 µM throughout.
Take `O=[N+]([O-])[C@@H]1C2C=CC(C2)[C@H]1Cl` (stereo not given in full): the TGI in experiment [1], in experiment [2], in experiment [3], in experiment [4], in [7] and in experiment [8] was greater than 100 µM each time. Besides, the TGI in experiment [9] is greater than 100 µM.
Take `Cc1ccccc1C(C#N)C(=O)C(=O)Nc1nc([N+](=O)[O-])cs1` (stereo not given): the TGI in experiment [3], in [4], in [5], in [7] and in experiment [9] was greater than 100 µM each time.
For `COC(=O)C(c1[nH]nc2ccccc12)C(C(=O)OC)c1[nH]nc2ccccc12` (stereo not given), the TGI is greater than 100 µM in [1]; greater than 100 µM in [3]; greater than 100 µM in experiment [4]; greater than 100 µM in [5]; 53.4 µM in experiment [7]; greater than 100 µM in experiment [8]. The same compound registered a TGI in [9] greater than 100 µM.
